# In article PMC9666555, “Genuine selective caspase-2 inhibition with new irreversible small peptidomimetics” (Cell Death & Disease, 2022):
# System: Casp2-mediated Mdm-2 cleavage in H9 hESC-derived NPCs
# Experiment: Reversine-induced Mdm-2 cleavage in neural progenitor cells (WB)
# Assay type: cell-based, human
# Settings: 1 µM reversine 24 h
# Experimental: The H9 human embryonic stem cell (hESC) line (WA09, WiCell) was maintained on mouse embryonic fibroblasts (MTI-GlobalStem) feeder culture in HUESM medium (20% KSR in KO-DMEM, 1% MEM-NEAA, 1% Pen–Strep, 0.1 mM 2 mercaptoethanol (Life technologies) 10 ng ml^−1 FGF2 (Biotechne), and differentiated into NPCs as previously described [Supplementary ref. 10] [Supplementary ref. 11]. In brief, hESC colonies were lifted with collagenase IV (1 mg ml^−1 in DMEM) at 37 °C for 1–2 h. Colonies lifted from the plate were transferred to a non-adherent plate (Corning) to generate embryoid bodies (EBs) for 1 day in N2/B27 medium (DMEM/F12-GlutaMAX, 1× N2 supplement, 1× B27 no RA supplement; Life). EBs were cultured in suspension in N2/B27 medium with dual-SMAD inhibitors (0.1 µM LDN193189 and 10 µM SB431542) for 7 days. […]
# H9-hNPCs were pretreated (or not) for 1 h with LJ3a and treated with 1 µM reversine (#10004412, Cayman Chemicals, Ann Arbor, MI) for 24 h. […] After the BCA assay for protein quantification, samples were subject to polyacrylamide gel electrophoresis-sodium dodecyl sulfate analysis (60 min, 200 V, 12% bis–tris 12-well gels), followed by transfer to nitrocellulose membrane (60 min, 30 V). […] Protein bands were quantified using Image Studio Lite Quantification software (LI-COR®, Lincoln, NE). […]
# recorded on the LJ3a sample. […]
structure (smiles),measurement,setting,value
CC(C)[C@H](NC(=O)c1ccc2ccccc2n1)C(=O)N[C@@H](CC(=O)O)C(=O)N[C@H](C(=O)N1CC[C@H](CC(C)(C)C)[C@@H]1C(=O)NC(CC(=O)O)C(=O)COc1c(F)cccc1F)C(C)C (some centres unmarked) [LJ3a],effect on reversine-induced Mdm-2 cleavage,10 µM,completely abolished
same,effect on reversine-induced Mdm-2 cleavage,submicromolar concentrations,significantly prevented
